Results on 34 compounds are retold here after patent US8541588B2, “Sulfonamide derivatives” (Pfizer Limited, priority 2009, dated 2013).

pIC50: −log10 of the molar value.

T1 sequence (Q15858 whole entry): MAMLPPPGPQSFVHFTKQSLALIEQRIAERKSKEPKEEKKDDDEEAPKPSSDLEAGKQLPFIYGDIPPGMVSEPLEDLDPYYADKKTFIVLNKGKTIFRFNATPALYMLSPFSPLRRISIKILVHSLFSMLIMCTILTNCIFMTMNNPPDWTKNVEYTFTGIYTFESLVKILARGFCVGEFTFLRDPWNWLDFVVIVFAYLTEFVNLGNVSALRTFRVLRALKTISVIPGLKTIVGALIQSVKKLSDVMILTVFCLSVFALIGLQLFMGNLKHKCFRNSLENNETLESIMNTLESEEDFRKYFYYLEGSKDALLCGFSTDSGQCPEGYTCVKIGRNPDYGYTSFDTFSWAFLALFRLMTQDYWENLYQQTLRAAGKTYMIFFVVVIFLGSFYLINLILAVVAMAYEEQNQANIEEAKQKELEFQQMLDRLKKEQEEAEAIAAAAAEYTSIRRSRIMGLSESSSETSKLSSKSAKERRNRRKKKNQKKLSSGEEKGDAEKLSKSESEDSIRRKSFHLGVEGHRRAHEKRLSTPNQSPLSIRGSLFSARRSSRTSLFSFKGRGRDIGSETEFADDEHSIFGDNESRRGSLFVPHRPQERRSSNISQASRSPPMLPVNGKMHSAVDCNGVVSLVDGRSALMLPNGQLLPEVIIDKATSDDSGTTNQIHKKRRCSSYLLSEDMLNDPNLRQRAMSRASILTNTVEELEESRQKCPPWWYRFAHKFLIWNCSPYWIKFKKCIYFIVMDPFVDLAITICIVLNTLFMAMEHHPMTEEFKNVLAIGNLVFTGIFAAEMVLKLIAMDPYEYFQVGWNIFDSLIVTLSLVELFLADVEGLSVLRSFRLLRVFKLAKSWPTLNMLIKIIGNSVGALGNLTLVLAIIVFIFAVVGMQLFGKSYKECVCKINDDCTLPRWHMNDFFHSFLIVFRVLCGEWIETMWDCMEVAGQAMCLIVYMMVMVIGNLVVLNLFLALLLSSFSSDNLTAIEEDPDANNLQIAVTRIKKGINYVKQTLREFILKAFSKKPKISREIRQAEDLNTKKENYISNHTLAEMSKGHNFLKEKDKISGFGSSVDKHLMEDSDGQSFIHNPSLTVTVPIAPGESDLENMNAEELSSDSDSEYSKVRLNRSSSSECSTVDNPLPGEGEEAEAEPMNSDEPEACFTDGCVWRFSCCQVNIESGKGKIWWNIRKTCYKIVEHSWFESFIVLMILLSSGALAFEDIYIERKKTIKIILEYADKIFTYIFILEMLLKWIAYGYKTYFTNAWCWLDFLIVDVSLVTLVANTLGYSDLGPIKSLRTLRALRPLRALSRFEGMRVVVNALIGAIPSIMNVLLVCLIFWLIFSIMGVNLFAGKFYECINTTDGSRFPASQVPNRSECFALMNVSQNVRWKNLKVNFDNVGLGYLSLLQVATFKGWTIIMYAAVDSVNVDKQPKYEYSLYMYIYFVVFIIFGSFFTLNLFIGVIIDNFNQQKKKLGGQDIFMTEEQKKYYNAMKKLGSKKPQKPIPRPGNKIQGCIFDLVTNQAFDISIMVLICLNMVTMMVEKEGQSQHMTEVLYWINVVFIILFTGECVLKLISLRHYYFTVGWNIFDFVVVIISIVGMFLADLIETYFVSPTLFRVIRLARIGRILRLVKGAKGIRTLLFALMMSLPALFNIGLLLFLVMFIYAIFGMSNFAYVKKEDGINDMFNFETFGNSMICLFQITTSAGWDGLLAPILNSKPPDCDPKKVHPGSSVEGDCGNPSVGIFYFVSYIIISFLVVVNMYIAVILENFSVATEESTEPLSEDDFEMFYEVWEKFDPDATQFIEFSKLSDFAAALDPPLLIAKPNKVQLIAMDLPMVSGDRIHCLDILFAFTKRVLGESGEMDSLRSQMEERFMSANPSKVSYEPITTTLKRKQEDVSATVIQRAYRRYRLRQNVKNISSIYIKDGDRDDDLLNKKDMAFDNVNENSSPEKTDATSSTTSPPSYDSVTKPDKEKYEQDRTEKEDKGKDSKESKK

This test addresses T1, Nav1.7 (or SCN9A) channel; HEK cells stably transfected with hSCN9A (Homo sapiens, UniProt Q15858).
T1 construct: expressed in transfected cells
Briefly: Nav1.7 block, PatchXpress 7000 automated whole-cell voltage clamp, estimated IC50 (EIC50). The format is cell-based. The following applies: estimated IC50; hSCN9A HEK cells, PatchXpress platform; Examples 283-814.
`N#Cc1cc(S(=O)(=O)Nc2nccs2)ccc1Oc1ccc(-c2ccccc2)nc1` [Example 646, 3-cyano-4-[(6-phenylpyridin-3-yl)oxy]-N-1,3-thiazol-2-ylbenzenesulfonamide]: the pIC50 is 5.55.

For `Cn1nc(C(F)(F)F)cc1-c1ccc(Oc2ccc(S(=O)(=O)Nc3nccs3)cc2C#N)cn1` [Example 647, 3-cyano-4-({6-[1-methyl-3-(trifluoromethyl)-1H-pyrazol-5-yl]pyridin-3-yl}oxy)-N-1,3-thiazol-2-ylbenzenesulfonamide], the pIC50 was 5.54.

Consider `Cn1nccc1-c1cc(Oc2ccc(S(=O)(=O)Nc3nccs3)cc2C#N)ccc1Cl` [Example 648, 4-[4-chloro-3-(1-methyl-1H-pyrazol-5-yl)phenoxy]-3-cyano-N-1,3-thiazol-2-ylbenzenesulfonamide], for which the pIC50 is 5.80.

`Cc1cc(C(F)(F)F)nn1-c1cccc(Oc2ccc(S(=O)(=O)Nc3nccs3)cc2C#N)c1` [Example 650, 3-cyano-4-{3-[5-methyl-3-(trifluoromethyl)-1H-pyrazol-1-yl]phenoxy}-N-1,3-thiazol-2-ylbenzenesulfonamide]: the negative logarithm of the IC50 (pIC50) was 5.80.

Regarding `Cn1ccnc1-c1cc(Cl)ccc1Oc1ccc(S(=O)(=O)Nc2nccs2)cc1C#N` [Example 651, 4-[4-chloro-2-(1-methyl-1H-imidazol-2-yl)phenoxy]-3-cyano-N-1,3-thiazol-2-ylbenzenesulfonamide], the pIC50 is 6.00.

Consider `N#Cc1cc(S(=O)(=O)Nc2nccs2)ccc1Oc1ccc(Cl)cc1-c1cnccn1` [Example 652, 4-(4-chloro-2-pyrazin-2-ylphenoxy)-3-cyano-N-1,3-thiazol-2-ylbenzenesulfonamide], for which the pIC50 is 6.05.

Take `Cn1nc(C(F)(F)F)cc1-c1cc(F)cc(Oc2ccc(S(=O)(=O)Nc3nccs3)cc2C#N)c1` [Example 653, 3-cyano-4-{3-fluoro-5-[1-methyl-3-(trifluoromethyl)-1H-pyrazol-5-yl]phenoxy}-N-1,3-thiazol-2-ylbenzenesulfonamide]: the pIC50 was 5.96.

In the case of `COCc1cc(C(F)F)nn1-c1cccc(Oc2ccc(S(=O)(=O)Nc3nccs3)cc2C#N)c1` [Example 654, 3-cyano-4-{3-[3-(difluoromethyl)-5-(methoxymethyl)-1H-pyrazol-1-yl]phenoxy}-N-1,3-thiazol-2-ylbenzenesulfonamide], the pIC50 is 5.96.

With `O=S(=O)(Nc1cscn1)c1cc(Cl)c(Oc2ccc(Cl)cc2C2CCNCC2)cc1F` [Example 655, 5-chloro-4-(4-chloro-2-piperidin-4-ylphenoxy)-2-fluoro-N-1,3-thiazol-4-ylbenzenesulfonamide], the negative logarithm of the IC50 (pIC50) was 7.31.

In the case of `Cn1nccc1-c1nc(C(F)(F)F)ccc1Oc1cc(F)c(S(=O)(=O)Nc2cscn2)cc1Cl` [Example 656, 5-chloro-2-fluoro-4-{[2-(1-methyl-1H-pyrazol-5-yl)-6-(trifluoromethyl)pyridin-3-yl]oxy}-N-1,3-thiazol-4-ylbenzenesulfonamide], the pIC50 is 6.57.

Regarding `Cn1nccc1-c1cc(F)ccc1Oc1cc(F)c(S(=O)(=O)Nc2cscn2)cc1Cl` [Example 657, 5-chloro-2-fluoro-4-[4-fluoro-2-(1-methyl-1H-pyrazol-5-yl)phenoxy]-N-1,3-thiazol-4-ylbenzenesulfonamide], the pIC50 is 7.08.

For the compound `O=S(=O)(Nc1cscn1)c1cc(Cl)c(Oc2ccc(F)cc2-c2ccn[nH]2)cc1F` [Example 658, 5-chloro-2-fluoro-4-[4-fluoro-2-(1H-pyrazol-5-yl)phenoxy]-N-1,3-thiazol-4-ylbenzenesulfonamide], the negative-log IC50 (pIC50) is 6.60.

Take `O=S(=O)(Nc1cscn1)c1cc(Cl)c(Oc2ccc(C(F)(F)F)cc2-c2cn[nH]c2)cc1F` [Example 659, 5-chloro-2-fluoro-4-[2-(1H-pyrazol-4-yl)-4-(trifluoromethyl)phenoxy]-N-1,3-thiazol-4-ylbenzenesulfonamide]: the pIC50 is 7.04.

Take `O=S(=O)(Nc1cscn1)c1cc(Cl)c(Oc2ccc(Cl)cc2-c2cn[nH]c2)cc1F` [Example 661, 5-chloro-4-[4-chloro-2-(1H-pyrazol-4-yl)phenoxy]-2-fluoro-N-1,3-thiazol-4-ylbenzenesulfonamide]: the pIC50 was 7.11.

Regarding `Cc1n[nH]cc1-c1cc(Cl)ccc1Oc1cc(F)c(S(=O)(=O)Nc2cscn2)cc1Cl` [Example 662, 5-chloro-4-[4-chloro-2-(3-methyl-1H-pyrazol-4-yl)phenoxy]-2-fluoro-N-1,3-thiazol-4-ylbenzenesulfonamide], the pIC50 is 7.48.

Turning to `O=S(=O)(Nc1cscn1)c1cc(Cl)c(Oc2cc(C(F)(F)F)ccc2-c2cccc(CO)c2)cc1F` [Example 663, 5-chloro-2-fluoro-4-{[3′-(hydroxymethyl)-4-(trifluoromethyl)biphenyl-2-yl]oxy}-N-1,3-thiazol-4-ylbenzenesulfonamide], the pIC50 is 6.89.

Turning to `N#Cc1cc(S(=O)(=O)Nc2ncns2)ccc1Oc1ccc(-c2nc(CO)co2)cc1` [Example 665, 3-Cyano-4-{4-[4-(hydroxymethyl)-1,3-oxazol-2-yl]phenoxy}-N-1,2,4-thiadiazol-5-ylbenzenesulfonamide], the IC50 is greater than 1000 nM.

As to `O=S(=O)(Nc1ccc(F)cn1)c1cc(F)c(Oc2ccc(C(F)(F)F)cc2C2CCNCC2)cc1F` [Example 666, 2,5-Difluoro-N-(5-fluoropyridin-2-yl)-4-[2-piperidin-4-yl-4-(trifluoromethyl)phenoxy]benzenesulfonamide], the negative-log IC50 (pIC50) is 6.57.

In the case of `Cn1nccc1-c1cc(Cl)ccc1Oc1ccc(S(=O)(=O)Nc2ncc(F)cc2F)cc1F` [Example 667, 4-[4-chloro-2-(1-methyl-1H-pyrazol-5-yl)phenoxy]-N-(3,5-difluoropyridin-2-yl)-3-fluorobenzenesulfonamide], the pIC50 was 5.51.

Take `Cn1nccc1-c1cc(Cl)ccc1Oc1ccc(S(=O)(=O)Nc2ccncn2)cc1Cl` [Example 668, 3-Chloro-4-[4-chloro-2-(1-methyl-1H-pyrazol-5-yl)phenoxy]-N-pyrimidin-4-ylbenzenesulfonamide]: the pIC50 is 7.28.

`Cn1nccc1-c1cc(F)ccc1Oc1ccc(S(=O)(=O)Nc2ccncn2)cc1Cl` [Example 669, 3-Chloro-4-[4-fluoro-2-(1-methyl-1H-pyrazol-5-yl)phenoxy]-N-pyrimidin-4-ylbenzenesulfonamide]: the pIC50 is 6.70.

In the case of `Cn1nccc1-c1cc(Cl)ccc1Oc1ccc(S(=O)(=O)Nc2ccncn2)cc1F` [Example 670, 4-[4-Chloro-2-(1-methyl-1H-pyrazol-5-yl)phenoxy]-3-fluoro-N-pyrimidin-4-ylbenzenesulfonamide], the pIC50 was 6.46.

Consider `N#Cc1cc(S(=O)(=O)Nc2ncns2)ccc1Oc1ccc(C(F)(F)F)cc1-c1cnccn1` [Example 671, 3-cyano-4-[2-pyrazin-2-yl-4-(trifluoromethyl)phenoxy]-N-1,2,4-thiadiazol-5-ylbenzenesulfonamide], for which the pIC50 was 6.59.

For the compound `O=S(=O)(Nc1cscn1)c1ccc(Oc2ccc(Cl)cc2-c2cn[nH]c2)cc1` [Example 672, 4-[4-chloro-2-(1H-pyrazol-4-yl)phenoxy]-N-1,3-thiazol-4-ylbenzenesulfonamide], the pIC50 is 5.60.

As to `O=S(=O)(Nc1cscn1)c1ccc(Oc2ccc(Cl)cc2-c2cn[nH]c2)c(Cl)c1` [Example 673, 3-chloro-4-[4-chloro-2-(1H-pyrazol-4-yl)phenoxy]-N-1,3-thiazol-4-ylbenzenesulfonamide], the pIC50 is 6.16.

For `O=S(=O)(Nc1ncc(F)s1)c1ccc(Oc2ccc(Cl)cc2-c2cn[nH]c2)c(F)c1` [Example 674, 4-[4-chloro-2-(1H-pyrazol-4-yl)phenoxy]-3-fluoro-N-(5-fluoro-1,3-thiazol-2-yl)benzenesulfonamide], the negative logarithm of the IC50 (pIC50) was 7.06.

Turning to `Cn1nccc1-c1cc(F)ccc1Oc1c(F)cc(S(=O)(=O)Nc2ncns2)cc1C#N` [Example 675, 3-cyano-5-fluoro-4-[4-fluoro-2-(1-methyl-1H-pyrazol-5-yl)phenoxy]-N-1,2,4-thiadiazol-5-ylbenzenesulfonamide], the negative logarithm of the IC50 (pIC50) is 6.43.

`N#Cc1cc(S(=O)(=O)Nc2ncns2)cc(F)c1Oc1ccc(Cl)cc1-c1cn[nH]c1` [Example 676, 4-[4-chloro-2-(1H-pyrazol-4-yl)phenoxy]-3-cyano-5-fluoro-N-1,2,4-thiadiazol-5-ylbenzenesulfonamide]: the pIC50 is 6.72.

Turning to `O=S(=O)(Nc1nccs1)c1cc(F)c(Oc2ccc(OC(F)(F)F)cc2-c2cn[nH]c2)cc1F` [Example 677, 2,5-difluoro-4-[2-(1H-pyrazol-4-yl)-4-(trifluoromethoxy)phenoxy]-N-1,3-thiazol-2-ylbenzenesulfonamide], the pIC50 was 7.92.

As for `Cn1nc(C(F)(F)F)cc1-c1ccc(Oc2cc(F)c(S(=O)(=O)Nc3nccs3)cc2F)cc1` [Example 678, 2,5-difluoro-4-{4-[1-methyl-3-(trifluoromethyl)-1H-pyrazol-5-yl]phenoxy}-N-1,3-thiazol-2-ylbenzenesulfonamide], the pIC50 is 6.59.

Take `O=S(=O)(Nc1nccs1)c1cc(F)c(Oc2ccc(Cl)cc2-c2cn[nH]c2)cc1F` [Example 679, 4-[4-chloro-2-(1H-pyrazol-4-yl)phenoxy]-2,5-difluoro-N-1,3-thiazol-2-ylbenzenesulfonamide]: the pIC50 was 7.51.

Regarding `O=S(=O)(Nc1cscn1)c1ccc(Oc2ccc(Cl)cc2-c2cn[nH]c2)cc1F` [Example 680, 4-[4-chloro-2-(1H-pyrazol-4-yl)phenoxy]-2-fluoro-N-1,3-thiazol-4-ylbenzenesulfonamide], the pIC50 was 6.00.

With `Cn1nccc1-c1cc(Cl)ccc1Oc1ccc(S(=O)(=O)Nc2cscn2)c(F)c1` [Example 681, 4-[4-chloro-2-(1-methyl-1H-pyrazol-5-yl)phenoxy]-2-fluoro-N-1,3-thiazol-4-ylbenzenesulfonamide], the pIC50 was 5.92.

Turning to `Cn1nc(C(F)(F)F)cc1-c1ccc(Oc2cc(F)c(S(=O)(=O)Nc3ncc(F)s3)cc2F)cc1` [Example 682, 2,5-difluoro-N-(5-fluoro-1,3-thiazol-2-yl)-4-{4-[1-methyl-3-(trifluoromethyl)-1H-pyrazol-5-yl]phenoxy}benzenesulfonamide], the pIC50 is 6.15.
